In publication PMC5734728, “The JAK2/STAT3 inhibitor pacritinib effectively inhibits patient-derived GBM brain tumor initiating cells in vitro and when used in combination with temozolomide increases survival in an orthotopic xenograft model” (PLoS ONE, 2017):
Where two headings read alike, the source gives them in different places.

What was measured:
[1] = in vitro; type: in vitro ADME, mouse; settings: male, CD-1, mouse
Method: (§1) Working stocks were initially diluted to a concentration of 40 μM in 0.1 M potassium phosphate buffer before addition to the reaction vials. Pooled mouse (CD-1, male) or human (50 donors) liver microsomes were utilized at a final concentration of 0.5 mg/mL. Duplicate wells were used for each time point (0 and 30 minutes). Reactions were carried out at 37°C in a shaker, and the final concentration of DMSO was kept constant at 0.01%. The final volume for each reaction was 100 μL, which included the addition of an NADPH-Regeneration solution (NRS) mix. The NRS mix was comprised of glucose 6-phosphate dehydrogenase (0.4 U/mL), NADP+ (1.3 mM), MgCl2 (3.3 mM), and glucose 6-phosphate (3.3 mM) in assay mixtures. Upon completion of the 30-minute time point, reactions were terminated by the addition of 1.5-volumes (150 μL) of ice-cold acetonitrile with 0.5% formic acid and internal standard. Samples were then centrifuged at 4,000 rpm for 10 minutes to remove debris and precipitated protein. Approximately 150 μL of supernatant was subsequently transferred to a new 96-well microplate for LC-MS analysis. Narrow-window mass extraction LC-MS analysis was performed for all samples using a Waters Xevo quadrupole time-of-flight (QToF) mass spectrometer and an ACQUITY UPLC system, to determine relative peak areas of parent compound.

[2] = mouse liver microsomes; usual value of control compound; cited from earlier work
[3] = human liver microsomal stability assay; type: in vitro ADME; settings: human liver microsomes, 30-minute incubation, 1 μM
Method: as §1

[4] = human liver microsomes; usual value of control compound; cited from earlier work
[5] = test system: p-STAT3 Y705; test: western blotting of activated STAT3 in BTICs; type: cell-based, human; settings: BT53, 48 hours; 1 μM pacritinib, 10 μg/mL TMZ or both
Method: BTIC spheres were enzymatically dissociated as described above and plated at 10^6 cells/2 mL of media. Cells were treated with vehicle (DMSO), pacritinib, TMZ, or a combination of pacritinib and TMZ and pelleted at select time points (3, 24, and 48 hours). For protein extraction, BTICs were lysed in modified radio-immunoprecipitation assay buffer supplemented with Complete Mini protease (Roche) and Halt phosphatase (Thermo Scientific) inhibitor cocktails. Protein concentrations were quantified using the BioRad protein assay; 20 μg of protein were loaded on 6% or 10% sodium dodecyl sulfate polyacrylamide gel electrophoresis (SDS PAGE) gels and transblotted to nitrocellulose membranes. Blots were stained with primary antibodies followed by horseradish peroxidase-conjugated secondary antibodies. Primary antibodies included p-STAT3 Y705 (1:1000; Cell Signaling Technology), STAT3 (1:1000; Cell Signaling Technology), p-Akt S473 (1:1000; Cell Signaling Technology), Akt (1:1000; Cell Signaling Technology), p-p44/42 MAPK (T202/Y204) (1:1000; Cell Signaling Technology), p44/42 MAPK (1:4000; Cell Signaling Technology), poly (ADP-ribose) polymerase (1:1000; Cell Signaling Technology), β-tubulin (1:1000; Cell Signaling Technology), and Actin (1:1000; Santa Cruz Biotechnology). Secondary antibodies included donkey anti-mouse (1:5000; Cell Signaling Technology), donkey anti-goat (1:5000; Millipore), and goat anti-rabbit (1:5000; Cell Signaling Technology). The blots were washed with tris-buffered saline and tween 20 (T-TBS) (50mM Tris, 150mM NaCl, 0.05% Tween 20, pH 7.6) and blocked with tris-buffered saline (TBS) before imaging. Bands were visualized with the SuperSignal West Pico chemiluminescent solution (Thermo Scientific) and an Amersham™ Imager 600 (General Electric).

[6] = test system: BT53 orthotopic xenograft; test: Kaplan-Meier survival, orthotopic BT53 xenograft; type: in vivo, mice; settings: BT53; combination p < 0.0023, TMZ alone p < 0.0229, log-rank
Method: For Kaplan-Meier survival studies, BTIC spheres from BT53 or BT147 were dissociated to a single-cell suspension. Mice were anaesthetized using 10 mg/kg ketamine/xylazine. Buprenorphine (0.05 mg/kg) was administered once pre-operatively and once post-operatively to minimize animal suffering. 5 x 10^4 cells were stereotactically implanted into the right striata of 8- to 10-week-old female severe combined immunodeficient (SCID) mice, as previously described and approved by the University of Calgary Health Sciences Animal Care Committee, accredited by CCAC. Mice were randomized to vehicle or treatment cohorts, with a minimum of 8 mice per group, one week after cell implantation. For BT147, vehicle (Ora-Plus; Galenova), pacritinib (100 mg/kg), TMZ (30 mg/kg), or a combination of pacritinib (100 mg/kg) and TMZ (30 mg/kg), were administered via oral gavage. Animals completed a five-week regimen of three weekly treatments for a total of 15 treatments. For BT53, 100 mg/kg of pacritinib was administered twice per day alone or in combination with 50 mg/kg TMZ once per day, for one week via oral gavage. Following this, mice received 100 mg/kg pacritinib twice per day in combination with 10 mg/kg TMZ once per day for two weeks. […] The body weights were closely monitored throughout the course of the experiment. […]

[7] = test system: BT147 orthotopic xenograft; test: Kaplan-Meier survival, orthotopic BT147 xenograft; type: in vivo; settings: BT147 xenografted mice; pacritinib 100 mg/kg, TMZ 30 mg/kg, oral, thrice weekly for five weeks; control 52 days
Method: For Kaplan-Meier survival studies, BTIC spheres from BT53 or BT147 were dissociated to a single-cell suspension. Mice were anaesthetized using 10 mg/kg ketamine/xylazine. Buprenorphine (0.05 mg/kg) was administered once pre-operatively and once post-operatively to minimize animal suffering. 5 x 10^4 cells were stereotactically implanted into the right striata of 8- to 10-week-old female severe combined immunodeficient (SCID) mice, as previously described and approved by the University of Calgary Health Sciences Animal Care Committee, accredited by CCAC. Mice were randomized to vehicle or treatment cohorts, with a minimum of 8 mice per group, one week after cell implantation. For BT147, vehicle (Ora-Plus; Galenova), pacritinib (100 mg/kg), TMZ (30 mg/kg), or a combination of pacritinib (100 mg/kg) and TMZ (30 mg/kg), were administered via oral gavage. Animals completed a five-week regimen of three weekly treatments for a total of 15 treatments. For BT53, 100 mg/kg of pacritinib was administered twice per day alone or in combination with 50 mg/kg TMZ once per day, for one week via oral gavage. Following this, mice received 100 mg/kg pacritinib twice per day in combination with 10 mg/kg TMZ once per day for two weeks. Mice were euthanized with a lethal dose of sodium pentobarbital at a pre-defined humane endpoint. Specific criteria for the endpoint included: 20% weight loss, lack of grooming, inactivity, hind limb paralysis, and/or inability to eat or drink. The body weights were closely monitored throughout the course of the experiment. […] The presence of tumor was confirmed in the mice via necropsy and cranial dissection.

[8] = test system: patient-derived GBM BTIC cultures; test: alamarBlue viability assay, panel of BTIC cultures; settings: 10 μg/mL TMZ
Method: Accumax (eBioscience) was used to enzymatically dissociate BTIC spheres to single cells. Cells were seeded at 1000 cells per well in 96-well plates and treated with vehicle (DMSO) or drug, 24 hours after plating. BTIC viability was assessed after 7–14 days, once spheres were formed in control wells, by performing the alamarBlue™ (Invitrogen) assay per the manufacturer’s instructions. In brief, the alamar dye was added to each well and plates were read 6 hours later. Fluorescence intensity (excitation 540 nm; emission 590 nm) was measured on a SpectraMax M Series Multi-Mode Microplate reader. […] All experiments were performed in triplicate with a minimum of 3 wells per condition.
BTICs were treated with suboptimal doses of 1 μM pacritinib (CTI Biopharma), 10 μg/mL TMZ (Sigma), or a combination of pacritinib and TMZ. […] Percent inhibition was determined by normalizing each well to the control well (0.1% DMSO).

## CC(C)NCC(O)COc1cccc2ccccc12 (centres unmarked) [Propranolol]
[1]; liver microsomes, mouse liver microsomes, 30-minute incubation, 1 μM, read-out: % Remaining
  remaining at 0.5 h, 1 μM: 9.6%
[2]
  Usual value (% remaining): Usual value: <20%

## Cc1cc(=O)n(-c2ccccc2)n1C [Antipyrine]
[1]; microsomes, % Remaining
  remaining at 0.5 h, 1 μM: 96.5%
[2]
  Usual value (% remaining): Usual value: >90%

## COc1ccc2c(c1)[C@]13CCCC[C@@H]1[C@H](C2)N(C)CC3 [DXM]
[3]
  % Remaining: 75.0%
[4]
  Usual value (% remaining): Usual value: 72 ± 10%

## Cn1nnc2c(C(N)=O)ncn2c1=O [TMZ, temozolomide]
[5]
  p-STAT3 Y705: dramatic increase in p-STAT3 Y705
[6]
  survival advantage over the control, combination study: significant survival advantage over the control arm
[7]
  median survival: 58 days
[8]; representative BT12
  sensitivity of MGMT unmethylated BTIC cultures: largely resistant to TMZ
[8]; representative BT67 and BT69
  sensitivity of MGMT methylated BTIC cultures: highly sensitive to TMZ
